Literature values, collected in patent US4451566A, “Methods and apparatus for enzymatically producing ethanol” (priority 1981, dated 1984).

Tested on: Glucokinase (2.7.1.2), present in liver
Conditions: read-out: KM for d-glucose, phosphorylation of d-glucose with ATP as phosphate donor

Question: Which Km does the source give for `OC[C@H]1OC(O)[C@H](O)[C@@H](O)[C@@H]1O` (stereo partly drawn) [d-glucose] here?
Answer: 100 mM
